Test results from US4536402A, “Vinylogous carboxamides” (Dr. Karl Thomae Gesellschaft mit beschranter Haftung, priority 1982, dated 1985).
Like-named read-outs stand apart in the source and are kept apart here.

Experiments:
[1] = tested on: tonic extensor spasm in the back legs of male mice subjected to maximum electric shock; assay: Anticonvulsant activity in mice: inhibition of tonic extensor spasm after maximum electric shock; assay type: in vivo, male SPF mice (Chbb:NMRI); settings: Mus musculus, oral
Method: The anticonvulsant activity was tested by measuring the inhibition of tonic extensor spasm in the back legs of male mice subjected to maximum electric shock.
The test animals used were male SPF mice (Chbb:NMRI) weighing from 20-26 gm which had access to standard food and drinking water up to one hour before the oral administration of the test substance.
The test was carried out using the method described by Swinyard, Brown and Goodman (J. Pharmacol. Exp. Ther. 106, 319, [1952]). The electric shock apparatus was constructed in accordance with the specifications provided by Woodbury and Davenport (Arch. Int. Pharmacodyn. 92, 97, [1952]). The electrical stimuli were administered to the animals' temples above their eyes, through steel ball electrodes covered with chamois and moistened with 0.9% NaCl solution. The stimuli were administered using alternating current, 50 Hz and 50 mA, with a duration of 0.2 sec.
The substance to be tested was suspended in 1% tylose mucilage and administered orally in a volume of 0.1 ml/10 gm body weight of the mice, each dosage being administered to 10 mice. The animals were given the shocks 30, 150 and 300 minutes after the administration of the test substance, and the ED50 values were determined graphically or by using the method of Litchfield and Wilcoxon (J. Pharmacol. Exp. Ther. 96, 99, [1949]) from the dosage which protects 50% of the animals from the tonic extension spasm of the rear extremities.

[2] = tested on: tonic extensor spasms in the back legs of male rats subjected to maximum electric shock; assay: Anticonvulsant activity in rats: inhibition of tonic extensor spasms after maximum electric shock; assay type: in vivo, male SPF rats (Chbb:THOM); settings: for % protected / animals protected: N=6, one hour
Method: The anticonvulsant activity was tested by measuring the inhibition of tonic extensor spasms in the back legs of male rats subjected to maximum electric shock.
The test animals used were male SPF rats (Chbb:THOM) weighing from 100-120 gm which had access to standard food and drinking water up to one hour before the oral administration of the test substance.
The test was carried out using the method described by Swinyard, Brown and Goodman (J. Pharmacol. Exp. Ther. 106, 319, [1952]). The electric shock apparatus was constructed in accordance with the specifications provided by Woodbury and Davenport (Arch. Int. Pharmacodyn. 92, 97 [1952]). The electrical stimuli were applied to the temples above the eyes, using moistened steel ball electrodes. The parameters of the stimuli were as follows: alternating current 50 Hz, 50 mA, duration of stimulus 0.2 sec. In all the control animals, clonic and then tonic extension spasm of the extremities occurred; the latter can be prevented by means of effective anticonvulsant agents.
The substance to be tested was suspended in 2% tylose mucilage and administered orally, in a volume of 1 ml/100 gm body weight of the rat, in dosages of 1.56, 3.125, 6.25 and 12.5 mg/kg, each dose being administered to 6 rats. One hour later, the animals were subjected to electric shock and the ED50 was calculated as the dosage which protected 50% of the animals against tonic extension spasms in the rear extremities, with confidence limits for a 5% probability of error.

[3] = tested on: fatty and cartilaginous tissue (kidney fat and sternum); assay: Tests for yellow coloration of fatty and cartilaginous tissue in the rat; assay type: in vivo, male rats, Chbb:THOM (SPF)
Method: The yellow coloration of fatty and cartilaginous tissue following the oral administration of 50 and 400 mg/kg of compound E and compound A once a day over a period of 51/2 weeks was investigated. The compounds were homogeneously suspended in 1.5% tylose by several hours' stirring. The compounds were administered through an esophageal tube. The volume administered was about 1.4 ml. 9 to 11 male rats [of the Chbb:THOM (SPF) strain] with a body weight of 263±10 gm were used for each dose. At different times, animals were taken from the four treated groups and one control group and the kidney fat and sternum were removed after the animal had been bled from the abdominal aorta.

[4] = Approximate acute toxicity in mice, p.o.; assay type: in vivo; settings: in vivo; mouse, oral, 14 days
Description: (§1) Approximate acute toxicity in mice, compound A, p.o.

[5] = tested on: mice; assay: Approximate acute toxicity in mice, p.o.; assay type: in vivo; settings: for Number of animals which died in 14 days: mice
Description: as §1

[6] = Acute toxicity in the rat, p.o.; assay type: in vivo; settings: in vivo; for mortality at 336 h: N=10, read-out: Animals which died in 14 days, %
Description: (§2) Acute toxicity in the rat, compound A, p.o.

[7] = tested on: rat; assay: Acute toxicity in the rat, p.o.; assay type: in vivo; settings: for Animals which died in 14 days: N=10
Description: as §2

[8] = tested on: fatty and cartilaginous tissue (kidney fat and sternum); settings: known compound, general statement; cited from earlier work
[9] = 0.5 h, shock 30 minutes after administration
[10] = 2.5 h, shock 150 minutes after administration
[11] = 5 h, shock 300 minutes after administration
[12] = 50 mg/kg oral once a day, 17 days
[13] = 50 mg/kg oral once a day, 36 days
[14] = 50 mg/kg oral once a day, 38 days
[15] = 50 mg/kg oral once a day, 39 days
[16] = 400 mg/kg oral once a day, 2 days
[17] = 400 mg/kg oral once a day, 4 days
[18] = 400 mg/kg oral once a day, 9 days
[19] = 400 mg/kg oral once a day, 17 days
[20] = 400 mg/kg oral once a day, 36 days
[21] = 400 mg/kg oral once a day, 38 days
[22] = 400 mg/kg oral once a day, 39 days

N/C(=C1\C(=O)c2ccccc2[S+]1[O-])c1ccccc1 (centres unmarked) [Compound A, (E)-2-[(amino)phenylmethylene]-benzo[b]thiophen-3(2H)-one-1-oxide] gave an ED50 [1, 9] of 12.5 mg/kg, an ED50 [1, 10] of 35 mg/kg and an ED50 [1, 11] of 88 mg/kg. For the same compound, the “% protected” value ([2]; 1.56 mg/kg p.o.) was 0%, the animals protected ([2]; 1.56 mg/kg p.o.) was 0 animals and the “% protected” value ([2]; 3.125 mg/kg p.o.) was 67%. The animals protected ([2]; 3.125 mg/kg p.o.) was 4 animals, the “% protected” value ([2]; 6.25 mg/kg p.o.) was 83% and the animals protected ([2]; 6.25 mg/kg p.o.) was 5 animals. The “% protected” value ([2]; 12.5 mg/kg p.o.) was 100%, the animals protected ([2]; 12.5 mg/kg p.o.) was 6 animals and the ED50 ([2]; Rattus norvegicus, 1 h, oral, one hour, read-out: ED50 (confidence limits, p≤0.05)) was 3.25 mg/kg. For the same compound, the “Number of animals with yellow kidney fat and sternum (number of animals dissected in brackets)” value [3, 12] was 0 (1) animals, the “Number of animals with yellow kidney fat and sternum (number of animals dissected in brackets)” value [3, 13] was 0 (1) animals and the “Number of animals with yellow kidney fat and sternum (number of animals dissected in brackets)” value [3, 14] was 0 (1) animals. The “Number of animals with yellow kidney fat and sternum (number of animals dissected in brackets)” value [3, 15] was 0 (6) animals, the “Number of animals with yellow kidney fat and sternum (number of animals dissected in brackets)” value [3, 16] was 0 (1) animals and the “Number of animals with yellow kidney fat and sternum (number of animals dissected in brackets)” value [3, 17] was 0 (1) animals. The “Number of animals with yellow kidney fat and sternum (number of animals dissected in brackets)” value [3, 18] was 0 (1) animals, the “Number of animals with yellow kidney fat and sternum (number of animals dissected in brackets)” value [3, 19] was 0 (1) animals and the “Number of animals with yellow kidney fat and sternum (number of animals dissected in brackets)” value [3, 20] was 0 (1) animals. For the same compound, the “Number of animals with yellow kidney fat and sternum (number of animals dissected in brackets)” value [3, 21] was 0 (1) animals, the “Number of animals with yellow kidney fat and sternum (number of animals dissected in brackets)” value [3, 22] was 0 (2) animals and the LD50 at 336 h [4] was over 4000 mg/kg. The “Number of animals which died in 14 days” value ([5]; 500 mg/kg p.o., N=10) was 0 animals, the “Number of animals which died in 14 days” value ([5]; 1000 mg/kg p.o., N=16) was 1 animals and the “Number of animals which died in 14 days” value ([5]; 1410 mg/kg p.o., N=10) was 0 animals. The “Number of animals which died in 14 days” value ([5]; 2000 mg/kg p.o., N=10) was 2 animals, the “Number of animals which died in 14 days” value ([5]; 4000 mg/kg p.o., N=10) was 1 animals and the tolerance ([5]; mouse, in vivo, po) was “well tolerated”. The LD50 at 336 h ([6]; oral, 14 days, read-out: LD50 (confidence limits, p≤0.05)) was 2600 mg/kg, the mortality at 336 h ([6]; po, 1000 mg/kg p.o.) was 0% and the mortality at 336 h ([6]; po, 2000 mg/kg p.o.) was 40%. The mortality at 336 h ([6]; po, 4000 mg/kg p.o.) was 70%, the therapeutic index (LD50/ED50) ([6]; po, LD50 / ED50, read-out: average toxic dose relative to average therapeutic dose) was 800 and the “Animals which died in 14 days” value ([7]; 1000 mg/kg p.o.) was 0 animals. For the same compound, the “Animals which died in 14 days” value ([7]; 2000 mg/kg p.o.) was 4 animals, the “Animals which died in 14 days” value ([7]; 4000 mg/kg p.o.) was 7 animals and the toxic effects ([7]; in vivo, po) was “only had toxic effects in very large dosages”.

With N/C(=C1/Sc2ccccc2C1=O)c1ccccc1 [Compound E, (E)-2-[(amino)phenylmethylene]-benzo[b]thiophen-3(2H)-one] the “Number of animals with yellow kidney fat and sternum (number of animals dissected in brackets)” value [3, 12] was 0 (1) animals, the “Number of animals with yellow kidney fat and sternum (number of animals dissected in brackets)” value [3, 13] was 0 (1) animals and the “Number of animals with yellow kidney fat and sternum (number of animals dissected in brackets)” value [3, 14] was 0 (1) animals. For the same compound, the “Number of animals with yellow kidney fat and sternum (number of animals dissected in brackets)” value [3, 15] was 0 (6) animals, the “Number of animals with yellow kidney fat and sternum (number of animals dissected in brackets)” value [3, 16] was 0 (1) animals and the “Number of animals with yellow kidney fat and sternum (number of animals dissected in brackets)” value [3, 17] was 0 (1) animals. For the same compound, the “Number of animals with yellow kidney fat and sternum (number of animals dissected in brackets)” value [3, 18] was 0 (1) animals, the “Number of animals with yellow kidney fat and sternum (number of animals dissected in brackets)” value [3, 19] was 1 (1) animals and the “degree of yellow coloration of kidney fat and sternum” value (“degree” below) [3, 19] was “very slight”. The “Number of animals with yellow kidney fat and sternum (number of animals dissected in brackets)” value [3, 20] was 1 (1) animals, the “degree” value [3, 20] was “marked” and the “Number of animals with yellow kidney fat and sternum (number of animals dissected in brackets)” value [3, 21] was 1 (1) animals. For the same compound, the “degree” value [3, 21] was “marked”, the “Number of animals with yellow kidney fat and sternum (number of animals dissected in brackets)” value [3, 22] was 5 (5) animals and the “degree” value [3, 22] was “marked”. For the same compound, the “yellow coloration of the kidney fat and sternum” value ([3]; 400 mg/kg, from the 17th day p.a.) was “slight at first but became marked later” and the “undesirable side effect: yellow coloration of fatty and cartilaginous tissue” value [8] was “strong yellow coloration”.

With N/C(=C1\C(=O)c2ccccc2[S+]1[O-])c1ccccc1Cl (centres unmarked) [B, (E)-2-[(amino)-2-chlorophenylmethylene]-benzo[b]thiophen-3(2H)-one-1-oxide] the ED50 [1, 9] was 8.1 mg/kg, the ED50 [1, 10] was 7.4 mg/kg and the ED50 [1, 11] was 8.3 mg/kg.

Work on CCN/C(=C1\C(=O)c2ccccc2[S+]1[O-])c1ccccc1 (centres unmarked) [C, (E)-2-[(ethylamino)phenylmethylene]-benzo[b]thiophen-3(2H)-one-1-oxide] yielded an ED50 [1, 9] of 17.1 mg/kg, an ED50 [1, 10] of 61 mg/kg and an ED50 [1, 11] of 93.9 mg/kg.
